Data: patent US12558363B2, “Compositions for clinical complications associated to devices implanted in the urinary tract” (Devicare SL, priority 2019, dated 2026)
Several values for one entry are separate records, joined by “and”; a condition that tells them apart may be missing. Equal values may be shown once. Entries after “also recorded” stand apart in the source; their conditions may differ.

Legend:
Mucin = test: Conditioning film generation: accumulated protein on medical device fragment in continuous flow artificial urine system (Lowry); settings: for Quantity of accumulated protein (Mucin), Experiment 1 / Quantity of accumulated protein (Mucin), Experiment 2: 48 hours irrigation of Tygon fragment, pH 6.5; for Quantity of accumulated protein (Mucin), Experiment 1 / Quantity of accumulated protein (Mucin), Experiment 2 / Quantity of accumulated protein (Mucin), Average: NAC 20 mg/L and/or phytate 2 ppm; for Quantity of accumulated protein (Mucin), Average: average of Experiments 1 and 2, 48 hours; for Reduction in the precipitation of protein, compounds tested individually: phytate 2 ppm or NAC 20 mg/L alone, compared with the combination
[1] = Struvite crystal formation/adhesion on catheter portions in artificial urine; settings: for Struvite crystals formation ratio (crystals without phytate divided by crystals with phytate) / # struvite crystals with phytate (2 ppm): phytate 2 ppm; for # struvite crystals with phytate (2 ppm): pH 7.2, 37° C., not washed catheter portion
[2] = test system: Pseudomonas aeruginosa PAO1; assay type: cell-based; settings: 24 h

In the case of `CC(=O)N[C@@H](CS)C(=O)O` [NAC, N-acetylcysteine, reference compound], the “Quantity of accumulated protein (Mucin), Experiment 1” value (Mucin) is reported as 30.0 mg/L, the “Quantity of accumulated protein (Mucin), Experiment 2” value (Mucin) is reported as 66.5 mg/L and the “Quantity of accumulated protein (Mucin), Average” value (Mucin) is reported as 48.3 mg/L. The “Reduction in the precipitation of protein, compounds tested individually” value (Mucin) was “a reduction in the precipitation was observed but of less intensity”.
In the case of `O=P(O)(O)O[C@H]1[C@H](OP(=O)(O)O)[C@@H](OP(=O)(O)O)[C@H](OP(=O)(O)O)[C@@H](OP(=O)(O)O)[C@H]1OP(=O)(O)O` [phytate, myo-inositol-hexaphosphate], the “Struvite crystals adhered in catheters” value ([1]; 9.28 g/L NH4+, 1 ppm phytate (FIG. 3B)) is reported as 2 crystals, the “Struvite crystals adhered in catheters” value ([1]; 18.56 g/L NH4+, 1 ppm phytate (FIG. 3D)) is reported as 5 crystals and the “Size of struvite crystals formed (electron microscopy)” value ([1]; 24 h) is reported as “smaller than the crystals formed in absence of phytate”. For the same compound, the “Struvite crystals formation ratio (crystals without phytate divided by crystals with phytate)” value ([1]; time of reaction 12 hours) was 1.45, the “# struvite crystals with phytate (2 ppm)” value ([1]; time of reaction 12 hours) was 20 and the “Struvite crystals formation ratio (crystals without phytate divided by crystals with phytate)” value ([1]; time of reaction 24 hours) was 3.85 and 2.4. The “# struvite crystals with phytate (2 ppm)” value ([1]; time of reaction 24 hours) was 6.5 and 5, the “Number of adhered bacteria in the surface of incubated catheters” value [2] was “significative decrease; also recorded: lower” and the “Quantity of accumulated protein (Mucin), Experiment 1” value (Mucin) was 33.0 mg/L. The “Quantity of accumulated protein (Mucin), Experiment 2” value (Mucin) was 57.5 mg/L, the “Quantity of accumulated protein (Mucin), Average” value (Mucin) was 45.3 mg/L and the “Reduction in the precipitation of protein, compounds tested individually” value (Mucin) was “a reduction in the precipitation was observed but of less intensity”.
